Measured values as given in patent US11053454B2, “Fragrance compositions comprising essential oils and products comprising same for promoting wellness” (THIS WORKS PRODUCTS LIMITED, priority 2018, dated 2021).
Like-named read-outs stand apart in the source and are kept apart here.

Tested on: primary olfactory cortex (piriform cortex)
Assay: fMRI connectivity analysis with piriform cortex as seed
Assay type: in vivo, human
Experimental: The pre-processed data were analyzed with the connectivity toolbox in SPM. The primary olfactory cortex (piriform cortex) was used as a seed and the connectivity from this very first olfactory target area to other areas in the brain was modeled. A statistical threshold of 0.05, FDR corrected, was used.

## OCCc1ccccc1 [PEA, Phenylethylalcohol]
  negative connectivity from the piriform cortex: negative connectivity to the posterior cingulate cortex
Listed as control odor
  negative connectivity from the piriform cortex: negative connectivity was detected to the left parietal frontal gyrus
Threshold 0.05 FDR corrected
  overall connectivity: intensity: 170
  overall connectivity: nodes: 41 nodes
